# According to PubChem BioAssay AID280 (DTP/NCI, 2004):
# Values joined by “and” are separate entries in the source; they are usually repeats but may differ in a detail not shown here. Equal values may be shown once. Toxic doses and inconclusive results are not listed.
# Test system: nude mice, LOX melanoma ip, survival T/C
# Test: NCI In Vivo Anticancer Drug Screen. Data for tumor model Human Amelanotic Melanoma (LOX) (intraperitoneal) in NU/NU BALB/C (nude) mice
# Details: endpoint: median survival time, higher = longer survival
# Description: The antitumor activity of compounds was measured in mice bearing transplantable tumors. Survival or tumor size were measured and the results are expressed as the measurement made in the treated group (T) divided by the measurement made in the vehicle treated control group (C). The tumor model used in this assay is Human Amelanotic Melanoma (LOX) (intraperitoneal) in NU/NU BALB/C (nude) mice
# [1] = dose: 37.5 mg/kg/injection, schedule: Q04DX003 (ip), vehicle: other
# [2] = dose: 75.0 mg/kg/injection, schedule: Q04DX003 (ip), vehicle: other
# [3] = dose: 150.0 mg/kg/injection, schedule: Q04DX003 (ip), vehicle: other
# [4] = dose: 50.0 mg/kg/injection, schedule: Q04DX003 (ip), vehicle: saline with Tween-80
# [5] = dose: 100.0 mg/kg/injection, schedule: Q04DX003 (ip), vehicle: saline with Tween-80
# [6] = dose: 200.0 mg/kg/injection, schedule: Q04DX003 (ip), vehicle: saline with Tween-80
# [7] = dose: 400.0 mg/kg/injection, schedule: Q04DX003 (ip), vehicle: saline with Tween-80
# [8] = dose: 800.0 mg/kg/injection, schedule: Q04DX003 (ip), vehicle: saline with Tween-80
smiles,measurement,setting,value
O=C(NC(Cc1ccc(I)cc1)C(=O)O)c1ccc(Br)cc1 (stereo not drawn),T/C,"dose: 18.75 mg/kg/injection, schedule: Q04DX003 (ip), vehicle: other",94 % of control
same,T/C,"dose: 18.75 mg/kg/injection, schedule: Q04DX003 (ip), vehicle: sodium bicarbonate",111 % of control
same,T/C,[1],151 % of control
same,T/C,"dose: 37.5 mg/kg/injection, schedule: Q04DX003 (ip), vehicle: sodium bicarbonate",107 % of control
same,T/C,[2],91 % of control
same,T/C,"dose: 75.0 mg/kg/injection, schedule: Q04DX003 (ip), vehicle: sodium bicarbonate",96 % of control
same,T/C,[3],98 % of control
same,T/C,"dose: 150.0 mg/kg/injection, schedule: Q04DX003 (ip), vehicle: sodium bicarbonate",86 % of control
same,T/C,"dose: 300.0 mg/kg/injection, schedule: Q04DX003 (ip), vehicle: sodium bicarbonate",106 % of control
CO[C@@H]1C2=CC=CC=C[C@H]2n2c(=O)n(C)c(=O)n21,T/C,[1],104 % of control
same,T/C,[2],105 % of control
same,T/C,[3],102 % of control
NC(Cn1ccc(=O)c(O)c1)C(=O)O (stereo not drawn),T/C,"dose: 75.0 mg/kg/injection, schedule: Q04DX003 (ip), vehicle: suspension in saline",105 % of control
same,T/C,"dose: 150.0 mg/kg/injection, schedule: Q04DX003 (ip), vehicle: suspension in saline",105 % of control
same,T/C,"dose: 300.0 mg/kg/injection, schedule: Q04DX003 (ip), vehicle: suspension in saline",109 % of control
same,T/C,"dose: 600.0 mg/kg/injection, schedule: Q04DX003 (ip), vehicle: suspension in saline",100 % of control
same,T/C,"dose: 1200.0 mg/kg/injection, schedule: Q04DX003 (ip), vehicle: suspension in saline",104 % of control
CCOC(=O)C1=C(C)O/C(=C/c2cccc(Cl)c2)C1=O,T/C,"dose: 37.5 mg/kg/injection, schedule: Q04DX003 (ip), vehicle: saline with Tween-80",200 % of control
same,T/C,"dose: 75.0 mg/kg/injection, schedule: Q04DX003 (ip), vehicle: saline with Tween-80",194 % of control
same,T/C,"dose: 150.0 mg/kg/injection, schedule: Q04DX003 (ip), vehicle: saline with Tween-80",152 % of control
same,T/C,"dose: 300.0 mg/kg/injection, schedule: Q04DX003 (ip), vehicle: saline with Tween-80",184 % of control
CC(=O)/C(=C\c1ccc(/C=C(\C(C)=O)C(=O)CCN(C)C)cc1)C(=O)CCN(C)C,T/C,[4],94 % of control
same,T/C,[5],100 % of control
same,T/C,[6],105 % of control
same,T/C,[7],107 % of control
same,T/C,[8],111 % of control
COc1ccc2c(c1)-c1nn(CCCN(C)C)c3ccc([N+](=O)[O-])c(c13)N2,T/C,"dose: 5.8 mg/kg/injection, schedule: Q04HX006 (ip), vehicle: water",116 % of control
same,T/C,"dose: 8.8 mg/kg/injection, schedule: Q04HX006 (ip), vehicle: water",119 % of control
same,T/C,"dose: 13.3 mg/kg/injection, schedule: Q04DX003 (ip), vehicle: water",117 % of control
same,T/C,"dose: 13.3 mg/kg/injection, schedule: Q04HX006 (ip), vehicle: water",123 % of control and 96 % of control
same,T/C,"dose: 19.8 mg/kg/injection, schedule: Q04DX003 (ip), vehicle: water",113 % of control
same,T/C,"dose: 19.8 mg/kg/injection, schedule: Q04HX006 (ip), vehicle: water",123 % of control
same,T/C,"dose: 21.0 mg/kg/injection, schedule: Q04DX003 (ip), vehicle: water",107 % of control
same,T/C,"dose: 21.6 mg/kg/injection, schedule: Q04DX003 (ip), vehicle: water",103 % of control
same,T/C,"dose: 29.7 mg/kg/injection, schedule: Q04DX003 (ip), vehicle: water",114 % of control
same,T/C,"dose: 29.7 mg/kg/injection, schedule: Q04HX006 (ip), vehicle: water",123 % of control
same,T/C,"dose: 36.0 mg/kg/injection, schedule: Q04DX003 (ip), vehicle: water",114 % of control and 93 % of control
same,T/C,"dose: 44.5 mg/kg/injection, schedule: Q04DX003 (ip), vehicle: water",114 % of control and 117 % of control
same,T/C,"dose: 44.5 mg/kg/injection, schedule: Q04HX006 (ip), vehicle: water",122 % of control
same,T/C,"dose: 60.0 mg/kg/injection, schedule: Q04DX003 (ip), vehicle: water",109 % of control and 114 % of control
same,T/C,"dose: 66.7 mg/kg/injection, schedule: Q04DX003 (ip), vehicle: water",118 % of control
CN(C)[C@@H]1C(=O)C(C(=O)NCN2CCN(C(=N)N=C(N)N)CC2)=C(O)[C@@]2(O)C(=O)C3=C(O)c4c(O)cccc4[C@@](C)(O)[C@H]3C[C@@H]12,T/C,"dose: 1.25 mg/kg/injection, schedule: Q04DX003 (ip), vehicle: suspension in saline",114 % of control
same,T/C,"dose: 2.5 mg/kg/injection, schedule: Q04DX003 (ip), vehicle: suspension in saline",107 % of control
same,T/C,"dose: 3.6 mg/kg/injection, schedule: Q04DX003 (ip), vehicle: suspension in saline",112 % of control
same,T/C,"dose: 5.0 mg/kg/injection, schedule: Q04DX003 (ip), vehicle: suspension in saline",114 % of control
same,T/C,"dose: 6.0 mg/kg/injection, schedule: Q04DX003 (ip), vehicle: suspension in saline",105 % of control
same,T/C,"dose: 10.0 mg/kg/injection, schedule: Q04DX003 (ip), vehicle: suspension in saline",103 % of control and 100 % of control
same,T/C,"dose: 17.0 mg/kg/injection, schedule: Q04DX003 (ip), vehicle: suspension in saline",112 % of control
same,T/C,"dose: 28.0 mg/kg/injection, schedule: Q04DX003 (ip), vehicle: suspension in saline",89 % of control
[CH3][Sn]([CH3])([Cl])[S]CCN,T/C,"dose: 6.25 mg/kg/injection, schedule: Q04DX003 (ip), vehicle: saline with Tween-80",101 % of control
same,T/C,"dose: 12.5 mg/kg/injection, schedule: Q04DX003 (ip), vehicle: saline with Tween-80",109 % of control
same,T/C,"dose: 25.0 mg/kg/injection, schedule: Q04DX003 (ip), vehicle: saline with Tween-80",105 % of control
same,T/C,[4],115 % of control
same,T/C,[5],103 % of control
NC(=O)c1[nH]cnc1O,T/C,[4],95 % of control and 98 % of control
same,T/C,[5],116 % of control and 100 % of control
same,T/C,[6],104 % of control and 111 % of control
same,T/C,[7],96 % of control
same,T/C,[8],88 % of control
CN(Cc1cnc2nc(N)nc(N)c2n1)c1ccc(C(=O)N[C@@H](CCC(=O)O)C(=O)O)cc1,T/C,"dose: 0.38 mg/kg/injection, schedule: Q01DX015 (ip), vehicle: sodium bicarbonate",90 % of control
same,T/C,"dose: 0.75 mg/kg/injection, schedule: Q01DX005 (ip), vehicle: sodium bicarbonate",90 % of control
same,T/C,"dose: 1.5 mg/kg/injection, schedule: Q01DX005 (ip), vehicle: sodium bicarbonate",113 % of control
same,T/C,"dose: 1.5 mg/kg/injection, schedule: Q01DX015 (ip), vehicle: sodium bicarbonate",95 % of control
same,T/C,"dose: 3.0 mg/kg/injection, schedule: Q01DX005 (ip), vehicle: sodium bicarbonate",112 % of control
same,T/C,"dose: 3.0 mg/kg/injection, schedule: Q01DX015 (ip), vehicle: sodium bicarbonate",102 % of control
same,T/C,"dose: 6.0 mg/kg/injection, schedule: Q01DX005 (ip), vehicle: sodium bicarbonate",112 % of control
same,T/C,"dose: 10.0 mg/kg/injection, schedule: Q04DX003 (ip), vehicle: sodium bicarbonate",107 % of control
same,T/C,"dose: 12.0 mg/kg/injection, schedule: Q01DX005 (ip), vehicle: sodium bicarbonate",107 % of control
same,T/C,"dose: 12.0 mg/kg/injection, schedule: Q04DX003 (ip), vehicle: sodium bicarbonate",105 % of control and 112 % of control
same,T/C,"dose: 18.0 mg/kg/injection, schedule: Q04DX003 (ip), vehicle: sodium bicarbonate",103 % of control and 101 % of control
same,T/C,"dose: 20.0 mg/kg/injection, schedule: Q04DX003 (ip), vehicle: sodium bicarbonate",102 % of control
same,T/C,"dose: 25.0 mg/kg/injection, schedule: Q01DX001 (ip), vehicle: sodium bicarbonate",107 % of control
same,T/C,"dose: 27.0 mg/kg/injection, schedule: Q04DX003 (ip), vehicle: sodium bicarbonate",105 % of control and 112 % of control
same,T/C,"dose: 40.0 mg/kg/injection, schedule: Q04DX003 (ip), vehicle: sodium bicarbonate",113 % of control
same,T/C,"dose: 50.0 mg/kg/injection, schedule: Q01DX001 (ip), vehicle: sodium bicarbonate",106 % of control
same,T/C,"dose: 100.0 mg/kg/injection, schedule: Q01DX001 (ip), vehicle: sodium bicarbonate",103 % of control
same,T/C,"dose: 200.0 mg/kg/injection, schedule: Q01DX001 (ip), vehicle: sodium bicarbonate",121 % of control
CNC(=O)/C=C/C1=CN2C(=O)c3ccc(C)c(O)c3NC(OC)C2C1 (stereo not drawn),T/C,"dose: 200.0 micrograms/kg/injection, schedule: Q04DX003 (ip), vehicle: saline",121 % of control
